System: Glioblastoma Multiforme (GBM) xerographs, U87 cells
Test: DaRT with systemic BEV on U87 GBM xenografts, BEV started five days post seed insertion (FIG. 3)
Format: in vivo, athymic nude mice
Conditions: U87 intracutaneous flank tumors; single seed in tumor; BEV or IgG 5 mg/kg i.p., 3 doses per week for 3 weeks, from five days post seed insertion; compared with other groups
Description: In the experiment, the efficacy of DaRT with a systemic administration of BEV was tested on Glioblastoma Multiforme (GBM) xerographs. U87 cells were intracutaneously inoculated in a total of 5·10^6 cells per mouse (in a volume of 100 μl) to the flank of athymic nude mice. The tumors were allowed to grow to an average size of 5-6 mm (longest diameter) for 9 days, when either a single DaRT or inert (non-radioactive control) seed was inserted to the middle of each tumor. Five days post seed insertion, each mouse received an i.p (intraperitoneal) administration of either IgG (control antibody) or BEV. This administration included 3 doses per week (5 mg/kg each) for 3 consecutive weeks (a total of 9 doses). The mice were divided to 4 treatment groups as follows: • a. Inert+Control IgG (untreated control); • b. Inert+BEV (Bev as a monotherapy); • c. DaRT+Control IgG (DaRT as a monotherapy); • d. DaRT+BEV (The combined modality)
Tumor volumes were monitored 3 times per week, along with radioactivity measurement using a Geiger counter to confirm that the DaRT seeds are present in the tumor.

Bevacizumab
tumor growth / tumor volume: moderate but significant attenuation in tumor growth

From patent publication US20240285971A1, “Intratumoral Alpha-Emitter Radiation in Combination with Vasculature Inhibitors” (priority 2021, published 2024)
